Data set [1] can be described thus: Permeability of the compound at pH 5.5 measured for 4 hrs by UV plate reader based PAMPA assay. As to conditions: read-out: permeability. Format: ADME. A general note: The PAMPA barrier holds no transporters, so it reflects passive diffusion.
A short description of data set [2]: Permeability of the compound at pH 7.4 measured for 4 hrs by UV plate reader based PAMPA assay. As to conditions: read-out: permeability. Format: ADME.
Data set [3] in a line: Oral bioavailability in C57BL6 mouse at 10 mg/kg measured upto 24 hrs by LC-MS/MS analysis. Format: ADME, organism-based. The following applies: in vivo.
Data set [4] can be described thus: Cmax in C57BL6 mouse at 10 mg/kg, po measured upto 24 hrs by LC-MS/MS analysis. As to conditions: in vivo. In kind it is ADME, organism-based. Further details: time < 24 hrs, dose 10 mg/kg, route po.
Data set [5] in a line: AUC (0 to 24 hrs) in C57BL6 mouse at 10 mg/kg, po measured upto 24 hrs by LC-MS/MS analysis. In kind it is ADME, organism-based. Further details: dose 10 mg/kg, time < 24 hrs, route po. As to conditions: in vivo.
The nature of data set [6]: Volume of distribution at steady state in C57BL6 mouse at 2 mg/kg, iv measured upto 24 hrs by LC-MS/MS analysis. Format: ADME, organism-based. The following applies: in vivo, read-out: Vdss.
A short description of data set [7]: Clearance in C57BL6 mouse at 2 mg/kg, iv measured upto 24 hrs by LC-MS/MS analysis. Format: ADME, organism-based. The following applies: in vivo.
Data set [8] is described as follows: Metabolic stability of the compound in rat liver microsomes assessed as CYP450-mediated metabolism by measuring parent compound remaining at 0.5 uM measured after 10 mins in presence of NADPH by LC-MS/MS analysis. In kind it is ADME, Microsome. As to conditions: read-out: Stability.
Data set [9] is described as follows: Metabolic stability of the compound in mouse liver microsomes assessed as CYP450-mediated metabolism by measuring parent compound remaining at 0.5 uM measured after 10 mins in presence of NADPH by LC-MS/MS analysis. As to conditions: read-out: Stability. Format: ADME, Microsome. For orientation: Microsomes from liver hold many membrane-bound enzymes, among them those of drug oxidation.

The structures appear in SMILES notation.

On to `COc1ccc(Cl)cc1-n1nc(C)nc1[C@@H]1O[C@H](CO)[C@H](O)[C@H](n2cc(-c3cc(F)c(F)c(F)c3)nn2)[C@H]1O`, for which the Papp at 4 h in [1] turned out to be 15.7 ×10⁻⁶ cm/s; in [2], 14 ×10⁻⁶ cm/s.
Taken in the same sequence, the figures for `Cc1nc([C@@H]2O[C@H](CO)[C@H](O)[C@H](n3cc(-c4cc(F)c(F)c(F)c4)nn3)[C@H]2O)n(-c2cccc(Cl)c2Cl)n1` were 42.3 ×10⁻⁶ cm/s and 45.2 ×10⁻⁶ cm/s.
In the same order, the values of `Cc1nc([C@@H]2O[C@H](CO)[C@H](O)[C@H](n3cc(-c4cc(F)c(F)c(F)c4)nn3)[C@H]2O)n(-c2cc(Cl)ccc2Cl)n1` are 24.7 ×10⁻⁶ cm/s and 30.4 ×10⁻⁶ cm/s.
Consider `Cc1nc([C@@H]2O[C@H](CO)[C@H](O)[C@H](n3cc(-c4cc(F)c(F)c(F)c4)nn3)[C@H]2O)n(-c2cc(Cl)ccc2C(F)(F)F)n1`, for which the Papp at 4 h was 51.1 ×10⁻⁶ cm/s in [1] and 36.9 ×10⁻⁶ cm/s in [2].
Taken in the same sequence, the figures for `Cc1nc([C@@H]2O[C@H](CO)[C@H](O)[C@H](n3cc(-c4cc(F)c(F)c(F)c4)nn3)[C@H]2O)n(-c2cc(Cl)ccc2F)n1` were 12.7 ×10⁻⁶ cm/s and 12.5 ×10⁻⁶ cm/s.
As for `Cc1nc([C@@H]2O[C@H](CO)[C@H](O)[C@H](n3cc(-c4ccc(Br)c(F)c4F)nn3)[C@H]2O)n(-c2cc(Cl)ccc2C(F)(F)F)n1`, the bioavailability (usually the share of a dose that reaches the circulation, judged against a reference dose that is usually intravenous) in [3] was 40%. Further, the peak concentration (Cmax) (usually the highest concentration seen after dosing) in data set [4] was 5 µM. Also, the exposure AUC(0-t) (in general, the area under the concentration-time curve up to a stated or last time point) at 24 h in data set [5] turned out to be 40 µM·h. Also, the Vd in data set [6] was determined as 2.4 L/kg. Besides, the clearance (commonly the rate of elimination divided by the concentration) in [7] stood at 2.7 mL/min/kg.
Turning to `Cc1nc([C@@H]2O[C@H](CO)[C@H](O)[C@H](n3cc(-c4cc(F)c(F)c(F)c4)nn3)[C@H]2O)n(-c2cccc(Cl)c2)n1`, the Papp at 4 h in [1] came to 36.3 ×10⁻⁶ cm/s; in [2], 34.5 ×10⁻⁶ cm/s.
Consider `OC[C@H]1O[C@@H](c2nncn2-c2cccc(Cl)c2)[C@H](O)[C@@H](n2cc(-c3cc(F)c(F)c(F)c3)nn2)[C@H]1O`, for which, in [2], the Papp at 4 h came out at 0.6 ×10⁻⁶ cm/s.
Regarding `Cc1nc([C@@H]2O[C@H](CO)[C@H](O)[C@H](n3cc(-c4cc(F)c(F)c(F)c4)nn3)[C@H]2O)n(-c2cc(Cl)ccc2C)n1`, the Papp at 4 h in data set [1] turned out to be 15 ×10⁻⁶ cm/s; in data set [2], 18.1 ×10⁻⁶ cm/s.
In the case of `OC[C@H]1O[C@@H](c2ncnn2-c2cccc(Cl)c2)[C@H](O)[C@@H](n2cc(-c3cc(F)c(F)c(F)c3)nn2)[C@H]1O`, the Papp at 4 h in data set [2] was found to be 20.3 ×10⁻⁶ cm/s.
On to `Cc1nc([C@@H]2O[C@H](CO)[C@H](O)[C@H](n3cc(-c4cc(F)c(F)c(F)c4)nn3)[C@H]2O)n(-c2ccc(Cl)c(Cl)c2)n1`, for which the Papp at 4 h turned out to be 44.4 ×10⁻⁶ cm/s in data set [1] and 45.6 ×10⁻⁶ cm/s in data set [2].
Taken in the same sequence, the figures for `Cc1nc([C@@H]2O[C@H](CO)[C@H](O)[C@H](n3cc(-c4cc(F)c(F)c(F)c4)nn3)[C@H]2O)n(-c2cc(Cl)ccc2Br)n1` were 14.5 ×10⁻⁶ cm/s and 14.8 ×10⁻⁶ cm/s.
As to `OC[C@H]1O[C@@H](n2nncc2-c2ccc(Cl)c(Cl)c2)[C@H](O)[C@@H](n2cc(-c3cc(F)c(F)c(F)c3)nn2)[C@H]1O`, the Papp at 4 h in data set [2] was 7 ×10⁻⁶ cm/s.
For the compound `Cc1nc([C@@H]2O[C@H](CO)[C@H](O)[C@H](n3cc(-c4ccc(Cl)c(F)c4F)nn3)[C@H]2O)n(-c2cc(Cl)ccc2C(F)(F)F)n1`, the maximum concentration (Cmax) in data set [4] is 3.6 µM. In addition, in data set [5], the exposure AUC(0-t) at 24 h was determined as 37 µM·h.
For `Cc1nc([C@@H]2O[C@H](CO)[C@H](O)[C@H](n3cc(-c4cc(F)c(F)c(F)c4)nn3)[C@H]2O)n(-c2cc(Cl)cc(Cl)c2)n1`, the Papp at 4 h amounted to 10.8 ×10⁻⁶ cm/s in [1] and 12.5 ×10⁻⁶ cm/s in data set [2].
In the case of `Cc1nc([C@@H]2O[C@H](CO)[C@H](O)[C@H](n3cc(-c4cc(F)c(Cl)c(F)c4)nn3)[C@H]2O)n(-c2cc(Cl)ccc2C(F)(F)F)n1`, the figures for the remaining at 10 min, 0.5 µM in data set [8] and in [9] were 91% and 85%, respectively. Further, the bioavailability in data set [3] amounted to 100%. In addition, the Cmax in [4] was determined as 5 µM. In [5], this compound had an exposure AUC(0-t) at 24 h of 40 µM·h. The Vd in [6] is 1.7 L/kg. This compound also had a clearance in data set [7] of 7 mL/min/kg.
With `OC[C@H]1O[C@@H](n2nncc2-c2cccc(Cl)c2)[C@H](O)[C@@H](n2cc(-c3cc(F)c(F)c(F)c3)nn2)[C@H]1O`, the Papp at 4 h is 3.1 ×10⁻⁶ cm/s in data set [1] and 3.3 ×10⁻⁶ cm/s in [2].
